Assay results published in US7326721B2 (Hypnion, Inc., priority 2003, dated 2008).
pKi: −log10 of the molar value. Like-named read-outs stand apart in the source and are kept apart here.

Legend:
M1 muscarinic receptor [1] = molecular target: T1, M1 muscarinic receptor (Homo sapiens, UniProt P11229); design: purchased PerkinElmer, Inc., Wellesley, Mass; host or cells: CHO cells; details: reference compounds; read-out: Ki of reference compounds, M1 binding assay; cited from earlier work
T1 sequence (P11229 1-460): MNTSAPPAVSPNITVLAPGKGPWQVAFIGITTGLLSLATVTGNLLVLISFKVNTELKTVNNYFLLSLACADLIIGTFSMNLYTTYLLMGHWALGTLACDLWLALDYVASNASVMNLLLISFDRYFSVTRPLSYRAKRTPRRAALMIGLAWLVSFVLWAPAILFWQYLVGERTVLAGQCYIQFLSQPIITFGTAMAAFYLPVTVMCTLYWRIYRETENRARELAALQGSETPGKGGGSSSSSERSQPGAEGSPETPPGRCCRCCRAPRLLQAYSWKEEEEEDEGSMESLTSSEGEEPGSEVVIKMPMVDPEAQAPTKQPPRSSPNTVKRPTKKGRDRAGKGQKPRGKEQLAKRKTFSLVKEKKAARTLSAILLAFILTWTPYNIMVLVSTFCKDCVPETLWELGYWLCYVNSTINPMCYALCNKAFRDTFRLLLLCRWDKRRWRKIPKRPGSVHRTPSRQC

adult male Wistar rats = experiment: SCORE-2000 sleep-wakefulness, locomotor activity and body temperature monitoring; assay type: in vivo, rat
H1 histamine receptor = molecular target: T2, H1 histamine receptor (Bos taurus, UniProt P30546); experiment: Histamine H1 competitive binding assay ([3H]pyrilamine); design: species or system bovine; details: bovine receptor; read-out: H1 binding
T2 construct: the receptors were obtained from bovine cerebellar membrane tissue; from tissue; host or cells: bovine cerebellar membranes

M1 muscarinic receptor [2] = molecular target: T1, M1 muscarinic receptor; experiment: Muscarinic M1 binding assay ([3H]-scopolamine, N-methyl chloride)
M2 muscarinic receptor = molecular target: T3, M2 muscarinic receptor (Homo sapiens, UniProt P08172); experiment: Muscarinic M2 binding assay
T3 sequence (P08172 1-466): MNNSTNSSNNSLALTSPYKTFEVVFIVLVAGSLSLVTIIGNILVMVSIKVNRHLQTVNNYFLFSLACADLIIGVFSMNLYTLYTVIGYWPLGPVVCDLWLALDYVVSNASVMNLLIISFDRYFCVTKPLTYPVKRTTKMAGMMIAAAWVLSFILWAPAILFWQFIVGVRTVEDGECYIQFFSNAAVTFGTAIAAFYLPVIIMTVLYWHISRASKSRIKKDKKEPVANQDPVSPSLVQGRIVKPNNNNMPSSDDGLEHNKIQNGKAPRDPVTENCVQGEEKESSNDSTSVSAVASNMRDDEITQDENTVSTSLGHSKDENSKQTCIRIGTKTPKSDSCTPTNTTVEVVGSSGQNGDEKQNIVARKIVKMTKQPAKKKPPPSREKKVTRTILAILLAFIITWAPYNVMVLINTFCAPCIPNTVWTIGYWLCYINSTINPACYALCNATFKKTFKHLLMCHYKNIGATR

M3 muscarinic receptor = M3 muscarinic receptor (Homo sapiens, UniProt P20309); experiment: Muscarinic M3 binding assay
[3] = molecular target: Adrenergic, Alpha 1, Non-selective; experiment: Table 12 panel: Adrenergic, Alpha 1; assay type: binding; details: read-out: α1 binding
[4] = molecular target: Adrenergic, Alpha 2, Non-selective; experiment: Table 12 panel: Adrenergic, Alpha 2; assay type: binding; details: read-out: α2 binding
human H1 receptor = human H1 receptor (Homo sapiens, UniProt P35367); experiment: H1(hR) binding (Table 28)
Method: (§1) The comparative data is shown in Table 28, unless otherwise noted, binding was measured with the bovine receptors, H1(hR) is the human H1 receptor, 5HT2a (h) is the human 5HT2a receptor. Binding numbers are presented in nM values.

human 5HT2a receptor = human 5HT2a receptor (Homo sapiens, UniProt P28223); experiment: 5HT2a (h) binding (Table 28)
Dopamine, D1 = Dopamine, D1 (UniProt P21728); experiment: Dopamine, D1 (human recombinant) binding assay
[5] = molecular target: Dopamine, D1 (human recombinant) (UniProt P14416); experiment: Dopamine D2 binding assay (printed as D1 in b555)
Method: In vitro binding assays are used to determine H1 binding (i.e., primary target binding) and M1, M2 and M3 binding (i.e., off target binding). […] Similar assays are performed with H1 and dopamine receptors (D1 and D2), and with H1 and adrenergic receptors (α1 and α2).
Dopamine, D1 (human recombinant) binding assay was performed according to published procedures. See, e.g., Jarvie, et al. J. Recept Res., 13(1–4): 573–90 (1993); and Gundlach, et al. Life Sciences, 35(19): 1981–8 (1984) with modifications

5HT2a (rat) = 5HT2a (rat) (Rattus norvegicus, UniProt P14842); experiment: 5HT2a (rat) binding (Table 28)
Method: as §1

hERG = hERG (Homo sapiens, UniProt Q12809); details: human, 10 µM, pH 7.4
Sequence of hERG (Q12809 whole entry): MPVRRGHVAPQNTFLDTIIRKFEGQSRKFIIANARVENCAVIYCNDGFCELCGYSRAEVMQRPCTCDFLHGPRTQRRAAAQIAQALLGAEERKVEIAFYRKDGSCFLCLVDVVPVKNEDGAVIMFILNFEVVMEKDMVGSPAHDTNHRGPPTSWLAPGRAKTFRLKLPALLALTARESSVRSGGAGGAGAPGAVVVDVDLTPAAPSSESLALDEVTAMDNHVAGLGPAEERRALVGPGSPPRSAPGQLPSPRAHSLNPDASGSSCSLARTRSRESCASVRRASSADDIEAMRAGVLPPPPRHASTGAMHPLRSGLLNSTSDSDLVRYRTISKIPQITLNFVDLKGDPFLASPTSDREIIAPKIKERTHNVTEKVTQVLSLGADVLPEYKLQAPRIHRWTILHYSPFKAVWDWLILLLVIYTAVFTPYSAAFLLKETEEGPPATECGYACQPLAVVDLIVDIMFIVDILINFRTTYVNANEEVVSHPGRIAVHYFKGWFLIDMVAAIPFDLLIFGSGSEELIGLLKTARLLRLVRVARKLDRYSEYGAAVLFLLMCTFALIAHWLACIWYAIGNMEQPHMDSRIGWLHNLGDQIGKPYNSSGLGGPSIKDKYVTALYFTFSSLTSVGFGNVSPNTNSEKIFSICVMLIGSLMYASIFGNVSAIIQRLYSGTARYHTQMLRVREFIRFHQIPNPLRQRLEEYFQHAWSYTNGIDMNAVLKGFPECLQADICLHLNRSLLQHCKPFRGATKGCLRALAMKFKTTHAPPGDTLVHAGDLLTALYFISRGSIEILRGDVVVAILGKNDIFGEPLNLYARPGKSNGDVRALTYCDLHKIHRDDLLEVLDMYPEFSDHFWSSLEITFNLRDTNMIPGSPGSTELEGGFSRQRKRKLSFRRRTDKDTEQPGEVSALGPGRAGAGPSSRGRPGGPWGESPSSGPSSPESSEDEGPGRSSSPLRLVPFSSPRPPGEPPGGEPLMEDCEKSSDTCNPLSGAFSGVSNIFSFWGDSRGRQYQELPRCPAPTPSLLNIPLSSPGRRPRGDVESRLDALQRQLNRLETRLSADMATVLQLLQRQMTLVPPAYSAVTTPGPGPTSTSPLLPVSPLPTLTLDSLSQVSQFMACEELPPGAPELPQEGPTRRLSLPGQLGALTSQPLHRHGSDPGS

Sequence of human H1 receptor (P35367 whole entry): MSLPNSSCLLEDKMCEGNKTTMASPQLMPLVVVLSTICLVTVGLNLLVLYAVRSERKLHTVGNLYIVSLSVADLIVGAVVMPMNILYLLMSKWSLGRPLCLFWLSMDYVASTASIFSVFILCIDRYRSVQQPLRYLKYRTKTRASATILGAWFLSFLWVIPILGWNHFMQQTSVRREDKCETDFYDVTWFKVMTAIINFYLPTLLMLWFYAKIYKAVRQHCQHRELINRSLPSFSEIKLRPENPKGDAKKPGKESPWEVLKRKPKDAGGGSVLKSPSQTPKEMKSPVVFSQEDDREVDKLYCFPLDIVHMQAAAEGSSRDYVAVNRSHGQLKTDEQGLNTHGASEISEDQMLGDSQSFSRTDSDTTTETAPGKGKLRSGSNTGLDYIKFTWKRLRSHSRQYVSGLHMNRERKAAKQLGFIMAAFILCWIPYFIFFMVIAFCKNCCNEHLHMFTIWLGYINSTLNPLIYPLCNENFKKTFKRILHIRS
Sequence of 5HT2a (rat) (P14842 whole entry): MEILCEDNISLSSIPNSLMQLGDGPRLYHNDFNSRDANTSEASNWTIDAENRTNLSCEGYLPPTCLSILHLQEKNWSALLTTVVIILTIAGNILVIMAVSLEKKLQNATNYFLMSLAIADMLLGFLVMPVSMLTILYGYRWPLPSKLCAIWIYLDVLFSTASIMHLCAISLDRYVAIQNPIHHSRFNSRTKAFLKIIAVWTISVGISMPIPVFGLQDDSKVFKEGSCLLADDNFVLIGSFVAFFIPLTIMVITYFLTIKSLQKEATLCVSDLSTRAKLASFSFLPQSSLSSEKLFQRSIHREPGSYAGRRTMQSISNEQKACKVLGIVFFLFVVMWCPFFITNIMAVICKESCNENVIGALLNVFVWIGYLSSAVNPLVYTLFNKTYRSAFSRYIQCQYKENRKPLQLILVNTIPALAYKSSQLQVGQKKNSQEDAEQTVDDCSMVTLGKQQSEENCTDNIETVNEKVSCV
Sequence of human 5HT2a receptor (P28223 whole entry): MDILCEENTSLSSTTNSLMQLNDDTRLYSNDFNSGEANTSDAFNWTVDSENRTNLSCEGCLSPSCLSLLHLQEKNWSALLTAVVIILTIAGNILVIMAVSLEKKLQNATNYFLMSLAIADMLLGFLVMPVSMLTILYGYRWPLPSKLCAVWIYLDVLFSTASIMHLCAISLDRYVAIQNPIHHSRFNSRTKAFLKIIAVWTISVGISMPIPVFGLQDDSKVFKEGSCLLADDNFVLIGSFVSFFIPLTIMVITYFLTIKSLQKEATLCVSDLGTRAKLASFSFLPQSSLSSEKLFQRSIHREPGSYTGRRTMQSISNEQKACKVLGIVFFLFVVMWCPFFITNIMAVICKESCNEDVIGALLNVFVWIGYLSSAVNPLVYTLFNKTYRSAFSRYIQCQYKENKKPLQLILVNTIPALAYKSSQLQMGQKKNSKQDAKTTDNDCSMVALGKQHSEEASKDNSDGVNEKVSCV
T2 sequence (P30546 whole entry): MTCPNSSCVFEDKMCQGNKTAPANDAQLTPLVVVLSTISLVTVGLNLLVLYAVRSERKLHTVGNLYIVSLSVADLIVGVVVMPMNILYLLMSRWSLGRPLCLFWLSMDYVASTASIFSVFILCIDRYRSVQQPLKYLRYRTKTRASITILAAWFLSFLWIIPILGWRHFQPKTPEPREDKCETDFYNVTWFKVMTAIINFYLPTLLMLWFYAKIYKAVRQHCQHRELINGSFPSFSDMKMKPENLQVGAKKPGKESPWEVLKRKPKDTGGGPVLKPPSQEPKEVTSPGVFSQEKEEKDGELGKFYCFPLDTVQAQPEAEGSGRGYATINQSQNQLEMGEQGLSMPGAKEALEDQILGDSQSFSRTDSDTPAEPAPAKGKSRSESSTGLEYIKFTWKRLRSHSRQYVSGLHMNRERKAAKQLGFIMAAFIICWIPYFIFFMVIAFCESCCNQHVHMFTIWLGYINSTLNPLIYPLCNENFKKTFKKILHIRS
Sequence of M3 muscarinic receptor (P20309 whole entry): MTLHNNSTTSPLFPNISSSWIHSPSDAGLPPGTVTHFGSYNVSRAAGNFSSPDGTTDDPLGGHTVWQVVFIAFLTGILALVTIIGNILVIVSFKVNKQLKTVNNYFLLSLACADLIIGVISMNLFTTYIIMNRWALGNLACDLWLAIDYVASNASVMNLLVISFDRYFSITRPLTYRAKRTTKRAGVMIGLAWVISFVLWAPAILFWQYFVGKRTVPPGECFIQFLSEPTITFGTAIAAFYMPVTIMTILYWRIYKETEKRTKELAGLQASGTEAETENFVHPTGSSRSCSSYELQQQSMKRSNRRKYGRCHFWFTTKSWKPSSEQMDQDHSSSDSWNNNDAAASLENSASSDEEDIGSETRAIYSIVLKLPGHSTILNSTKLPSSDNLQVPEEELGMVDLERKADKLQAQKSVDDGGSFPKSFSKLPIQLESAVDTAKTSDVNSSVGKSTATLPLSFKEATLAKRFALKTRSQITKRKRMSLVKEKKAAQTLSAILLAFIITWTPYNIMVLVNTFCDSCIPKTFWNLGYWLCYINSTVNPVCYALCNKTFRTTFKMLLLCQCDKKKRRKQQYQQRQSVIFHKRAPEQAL

C[N+]1(C)CCC(OC(=O)C(c2ccccc2)c2ccccc2)CC1 [4-DAMP methiodide]
pKi (M1 muscarinic receptor [1]): 9.57

COc1ccc2c(c1)COc1ccc(F)cc1C2=C1CCN(CCCC(=O)O)CC1 [Compound 10520]
LUSB 3 mg/kg (adult male Wistar rats; 3 mg/kg): 4.9 ± 1.7 | LUSB 10 mg/kg (adult male Wistar rats; 10 mg/kg): 10.0 ± 2.2 | NREM cumul. 10 mpk (adult male Wistar rats; 10 mpk): 41 ± 8 | pKi (H1 histamine receptor): 7.65 | pKi (M1 muscarinic receptor [2]): < 5.00 | pKi (M2 muscarinic receptor): < 5.00 | pKi (M3 muscarinic receptor): < 5.00 | pKi [3]: 5.96 | pKi [4]: < 5.00 | pKi (human H1 receptor): 7.37 | pKi (human 5HT2a receptor): 6.40 | pKi (Dopamine, D1): < 5.00 | pKi [5]: < 5.00 | pKi (5HT2a (rat)): 7.25 | HERG (hERG): 56.00%
